# Source: article PMC9551036, “A selective and orally bioavailable VHL-recruiting PROTAC achieves SMARCA2 degradation in vivo” (Nature Communications, 2022)
# Where “and” joins values, the source holds several entries; their conditions need not be identical. Identical values can stand only once.
# Target: T1, PBRM1 (Homo sapiens, UniProt Q86U86)
# T1 construct: endogenous in cells; host or cells: NCI-H1568
# Assay: Western blot of PBRM1 degradation in NCI-H1568 cells
# Format: cell-based
# Conditions: SuppFig3b, per replicate
# Experimental: Cells were seeded into 6-well plates 24 h before treatment. Next day, several wells were treated with compounds or DMSO as indicated, washed with PBS and lysed with lysis buffer (1% Triton X-100, 150 mM NaCl, 1 mM EDTA, 50 mM Tris pH 7.4, protease inhibitor cocktail (Roche), 50 units/mL benzonase nuclease (Sigma)). Lysates were cleared by centrifugation at 4 °C, at 15,800 × g for 10 min and the supernatants stored at −20 °C. Protein concentration was determined by BCA assay (Pierce) and the absorbance at 562 nm measured by spectrophotometry (NanoDrop ND1000). […] Western blot images were obtained through detection of SMARCA2 (Sigma #HPA029981 RRID:AB_10602406 1:1000), SMARCA4 (Abcam #ab108318 clone EPR3912 RRID:AB_10889900 1:1000), PBRM1 (Bethyl Laboratories #A301-591A RRID:AB_1078808 1:1000), β-actin (Cell Signalling #4970 clone 13E5 RRID:AB_2223172 1:2500) and GAPDH (Abcam #ab9485 RRID:AB_307275 1:2500) antibodies with IRDye 800CW donkey anti-rabbit secondary antibody (LI-COR #926-32213 RRID:AB_621848 1:10000) using a ChemiDoc MP imaging system (Bio-Rad). Western blots were quantified using Image Studio Lite (Licor, version 5.2) with normalisation to loading control and DMSO and further analysed using GraphPad Prism (version 9.2.0).
# T1 sequence (Q86U86 whole entry): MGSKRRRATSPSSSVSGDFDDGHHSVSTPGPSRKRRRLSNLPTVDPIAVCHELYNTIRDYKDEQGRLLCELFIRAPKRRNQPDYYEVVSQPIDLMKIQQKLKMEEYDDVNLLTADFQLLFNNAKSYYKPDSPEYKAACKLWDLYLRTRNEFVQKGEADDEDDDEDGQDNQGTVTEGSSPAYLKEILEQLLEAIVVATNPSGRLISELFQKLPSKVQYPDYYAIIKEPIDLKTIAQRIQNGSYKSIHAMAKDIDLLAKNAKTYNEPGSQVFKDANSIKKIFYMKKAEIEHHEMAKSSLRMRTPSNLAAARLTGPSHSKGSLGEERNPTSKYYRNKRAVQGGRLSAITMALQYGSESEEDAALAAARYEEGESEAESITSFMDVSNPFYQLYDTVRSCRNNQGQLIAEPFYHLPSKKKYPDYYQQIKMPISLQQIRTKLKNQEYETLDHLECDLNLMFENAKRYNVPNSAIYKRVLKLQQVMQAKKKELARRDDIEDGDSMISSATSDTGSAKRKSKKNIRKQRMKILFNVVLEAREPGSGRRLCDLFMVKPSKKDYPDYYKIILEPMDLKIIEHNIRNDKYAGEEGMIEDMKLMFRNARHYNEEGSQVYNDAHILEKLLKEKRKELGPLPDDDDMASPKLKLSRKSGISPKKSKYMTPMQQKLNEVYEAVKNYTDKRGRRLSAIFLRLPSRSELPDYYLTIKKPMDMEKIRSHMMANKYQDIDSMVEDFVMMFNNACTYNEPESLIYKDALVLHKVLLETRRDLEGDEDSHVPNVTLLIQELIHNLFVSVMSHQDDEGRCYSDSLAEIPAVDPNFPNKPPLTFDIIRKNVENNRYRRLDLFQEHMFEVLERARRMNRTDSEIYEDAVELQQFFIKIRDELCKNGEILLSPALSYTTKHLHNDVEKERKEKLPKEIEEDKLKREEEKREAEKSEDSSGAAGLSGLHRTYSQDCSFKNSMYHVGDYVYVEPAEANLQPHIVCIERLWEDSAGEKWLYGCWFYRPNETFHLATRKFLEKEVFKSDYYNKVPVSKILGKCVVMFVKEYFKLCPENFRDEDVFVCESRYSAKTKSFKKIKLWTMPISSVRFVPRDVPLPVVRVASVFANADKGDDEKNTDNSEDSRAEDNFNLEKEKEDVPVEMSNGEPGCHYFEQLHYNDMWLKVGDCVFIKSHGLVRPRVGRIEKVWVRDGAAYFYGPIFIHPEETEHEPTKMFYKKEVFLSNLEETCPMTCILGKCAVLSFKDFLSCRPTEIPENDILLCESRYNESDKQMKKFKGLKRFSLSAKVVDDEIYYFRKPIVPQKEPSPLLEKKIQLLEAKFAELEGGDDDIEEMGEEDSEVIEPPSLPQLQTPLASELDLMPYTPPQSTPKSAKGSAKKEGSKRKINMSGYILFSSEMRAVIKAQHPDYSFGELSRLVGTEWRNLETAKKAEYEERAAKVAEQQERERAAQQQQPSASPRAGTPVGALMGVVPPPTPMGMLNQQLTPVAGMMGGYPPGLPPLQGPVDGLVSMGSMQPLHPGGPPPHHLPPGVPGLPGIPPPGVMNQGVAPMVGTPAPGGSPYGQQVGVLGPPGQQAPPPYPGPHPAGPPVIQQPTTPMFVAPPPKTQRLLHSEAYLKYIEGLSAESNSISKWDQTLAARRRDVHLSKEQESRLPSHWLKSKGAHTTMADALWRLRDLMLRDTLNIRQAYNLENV
structure (smiles),measurement,setting,value
Cc1ncsc1-c1ccc(C(CCC(C)CCN2CCC(c3ccc4c(c3)n(C3CCCC3)c3nc(=O)c5c(Br)cccc5n43)CC2)NC(=O)C2CC(O)CN2C(=O)C(NC(=O)C2(F)CC2)C(C)(C)C)cc1 (stereo not shown) [ACBI2],"PBRM1 degradation, % DMSO",1 nM,23.1362 % DMSO and 79.6814 % DMSO and 32.6932 % DMSO
same,"PBRM1 degradation, % DMSO",10 nM,3.304 % DMSO and 17.3996 % DMSO and 0.6905 % DMSO
same,"PBRM1 degradation, % DMSO",100 nM,2.804 % DMSO and 11.7415 % DMSO and 30.9172 % DMSO
same,"PBRM1 degradation, % DMSO",1000 nM,14.3896 % DMSO and 34.4025 % DMSO and 4.024 % DMSO
